“Also recorded” adds a separate entry of the source.
Legend:
CXCL-9, CXCL-10 = assay: Release of inflammatory mediators (CXCL-9, CXCL-10) by the enterocyte; assay type: cell-based, human; details: enterocyte model; IL-1β/IFN-γ; extracts subjected to digestion 100 μg/mL, cannabinoids 8 μM
Protocol: (§1) FIG. 19: Effect of the extracts 5 and 6 subjected to intestinal digestion (5d, 6d) and of the cannabinoids (CBD, CBG) on the release of inflammatory mediators (CXCL-9, CXCL-10) by the enterocyte. The extracts (100 μg/mL) and the isolated molecules (8 μM) were used in the treatment concomitant with pro-inflammatory stimulation (IL-1β/IFN-γ), arbitrarily placed at 100% . * p<0.05; ** p<0.01; *** p<0.001 (one-way ANOVA test) vs IL-1β/IFN-γ. The data are the mean±SEM of at least three duplicate experiments.
The same was highlighted with the use of pure cannabinoids. In analogy with the colonocyte, the release of IL-15 was found not relevant in the enterocyte model, compared to an increase at the transcriptional level.

[1] = system: undifferentiated CaCo-2 cells (colonocytes); assay: Cytotoxicity / cell viability (MTT) in colonocytes
Protocol: Firstly, the cytotoxicity of the extracts in the undifferentiated CaCo-2 cells (colonocytes) at 100 μg/mL was evaluated.
In the first phase of the work, the combination of IL-1β (10 ng/ml) and IFN-γ (10 ng/mL) was selected as pro-inflammatory stimulation. During the third experimental phase, the cytotoxicity of the extracts in both colonocytes and enterocytes was compared, using this pro-inflammatory cocktail.

[2] = system: human microbiota of fecal origin; assay: Prebiotic effect: butyric acid (SCFA) production after fecal fermentation; details: for butyric acid (SCFA) production, Mean (n = 4): LC-MS analysis, human microbiota of fecal origin
Protocol: In the last phase of the project, the prebiotic effect of the extracts 5 and 6 towards enteric bacterial strains was evaluated by means of fecal fermentation followed by gene analysis of selected strains.
Following fermentation of the extracts, the level of butyric acid produced by the intestinal flora was measured as an indicator of SCFA production. The reliability of the quantitative analysis was reinforced by two different techniques, namely an ELISA assay and mass spectrometry.
Table 2 below reports the prebiotic effect of the extracts 5 and 6 subjected to intestinal digestion (5d, 6d) and of the cannabinoids (CBD, CBG) in terms of induction of butyric acid (SCFA) production by the human microbiota of fecal origin. The result is expressed in μg/mL (LC-MS analysis).

CXCL-9 = CXCL-9 release by the colonocyte (ELISA); assay type: cell-based, human; details: IL-1β/IFN-γ, extracts subjected to digestion 100 μg/mL, cannabinoids 8 μM
Protocol: as §1, with “FIGS. 18A, 18B, 18C and 18D:” for “FIG. 19:”, “CXCL-10, CCL-20, IL-15)” for “CXCL-10)”, “colonocyte.” for “enterocyte.”
(§2) Consequently, the effect of the extracts at the protein level, especially in the colonocyte, was evaluated by ELISA assays for inflammatory mediators selected starting from the transcriptional data. All mediators are regulated by NF-κB.

CCL-20 = CCL-20 release by the colonocyte (ELISA); assay type: cell-based, human; details: IL-1β/IFN-γ, extracts subjected to digestion 100 μg/mL, cannabinoids 8 μM
Protocol: as §1, with “FIGS. 18A, 18B, 18C and 18D:” for “FIG. 19:”, “CXCL-10, CCL-20, IL-15)” for “CXCL-10)”, “colonocyte.” for “enterocyte.”
as §2

NF-κB = details: human HaCaT keratinocytes; micromolar concentrations; DOI: 10.1002/ptr.6400; cited from earlier work
CXCL10 = CXCL10 secretion in undifferentiated CaCo-2 cells (colonocytes) under pro-inflammatory stimulation; assay type: cell-based, human; details: cannabinoids 8 μM; for CXCL-10 release: colonocyte, IL-1β/IFN-γ, Phase 3, extracts subjected to digestion 100 μg/mL; for CXCL10 secretion: colonocytes, 10 ng/mL IFNγ and 10 ng/mL IL-1β, 24 hours, extracts 100 μg/mL
Protocol: Firstly, the individual cannabinoids CBD and CBG in undifferentiated cells (colonocytes) were analysed by comparing two different pro-inflammatory mixtures, in order to simplify the pro-inflammatory stimulation and the activation pathways involved. The pro-inflammatory mixture 50 ng/mL TNFα, 10 ng/mL LPS, 50 ng/ml IFNγ and 25 ng/ml IL-1ß mimics an inflammatory disease with a bacterial aetiology and was compared with a less complex mixture, consisting of 10 ng/mL IFNγ and 10 ng/mL IL-1β, deprived of the “bacterial” component, therefore more characteristic of an advanced inflammatory disease.
From the analysis of the pro-inflammatory genes most regulated by the application of the pro-inflammatory mixture, chemokines of the CXC family particularly over-expressed in the enterocyte and colonocyte emerged (FIG. 4).
The used concentration of the cannabinoids (8 μM) corresponds to a quantity equal to […] in the extracts at a concentration of 100 μg/mL.
Based on the results obtained, the effects of the different extracts were evaluated using the pro-inflammatory stimulation consisting of 10 ng/mL IFNγ and 10 ng/mL IL-1β.
as §2

[3] = system: NF-κB transcription factor; assay: NF-κB driven transcription, luciferase reporter plasmid in colonocytes; assay type: cell-based, human; details: 10 ng/mL IFNγ and 10 ng/mL IL-1β, 6 hours, extracts 100 μg/mL, cannabinoids 8 μM
Text: The use of this promoter allows the effect of the extracts/active molecules on transcription driven by this transcription factor to be observed.

Row | Compound | release of inflammatory mediators (CXCL-9, CXCL-10) | cell viability / cytotoxicity (MTT) ([1]; 10 ng/mL IFNγ and 10 ng/mL IL-1β, 24 hours, extracts 100 μg/mL, cannabinoids 8 μM) | reduction in viability (MTT) ([1]; IL-1β/IFN-γ, 8 μM) [%] | butyric acid (SCFA) production, Mean (n = 4) [2] [µg/mL] | CXCL-9 release (CXCL-9) | CCL-20 release (CCL-20) | effect on NF-κB transcription factor (NF-κB) | CXCL-10 release (CXCL10) | CXCL10 secretion (CXCL10) | NF-κB driven transcription [3] | increase in butyric acid levels ([2]; fecal fermentation) [times]
1 | C=C(C)[C@@H]1CCC(C)=C[C@H]1c1c(O)cc(CCCCC)cc1O [CBD, cannabidiol] | never showed inhibitory effects | slight reduction in cell viability | −25 | 212.20 | more or less marked inhibitory effect on all the mediators | more or less marked inhibitory effect on all the mediators | inhibitory effect | more or less marked inhibitory effect on all the mediators | reduced CXCL10 secretion; also recorded: more active than CBG | – | –
2 | CCCCCc1cc(O)c(C/C=C(\C)CCC=C(C)C)c(O)c1 [CBG, cannabigerol] | never showed inhibitory effects | – | – | 173.54 | participate in the inhibitory activity | – | – | participate in the inhibitory activity | reduced CXCL10 secretion | more active than CBD | –
3 | Inulin | – | – | – | 638.87 | – | – | – | – | – | – | 5

— patent US20260158092A1, “COMPOSITION COMPRISING AT LEAST ONE CANNABIS EXTRACT FOR USE IN THE TREATMENT OF AN INFLAMMATORY BOWEL DISEASE” (LINNEA SA, priority 2022, published 2026)
